The values below are quoted from earlier work in US20220090193A1, “ATTACHING NUCLEOTIDES TO A POLYNUCLEOTIDE WITH A POLYMERASE” (priority 2019, published 2022).

For the data set the following is noted: amino acid side chain.

The pKa is the pH at which an ionisable group is half protonated. `NCCCC[C@H](N)C(=O)O` [Lysine]: the pKa is 10.54.
